The subject of data set [1] is primary cortical cultures. In words: Cellular viability, Alamar Blue fluorescence assay. The data set is classed as cell-based, mouse. Particulars: primary cortical neurones, up to concentrations of 1 nM, Alamar Blue 10%. The text has this: (§1) In order to carry out the experiments of the present invention, either an in vitro cortical neuronal model with simultaneous overexpression of Tau and β-amyloid, obtained from a model of Alzheimer's disease in triple-transgenic (3xTg-AD or 3xTg) mice, obtainable via the detailed procedure in the international patent application WO 2003/053136 and provided by the title holders of this application, or an in vitro cortical neuronal model obtained from non-transgenic (no Tg) mice was used.
The primary cortical cultures in the present invention were obtained from 3xTg-AD mouse embryos of 15-17 days of gestation and the wild cultures were obtained from non-3xTg control mouse embryos of the same strain. The effect of the compounds used in this invention on cellular viability was estimated by a fluorescence assay using the Alamar Blue viability indicator. To carry out the assay, primary cortical cultures seeded on 96-well plates were used. The neuronal cells were incubated with yessotoxin, which was added to the culture medium at different concentrations, and the effect on in vitro neuronal viability at different treatment times was determined. The maximum concentration of yessotoxin evaluated was 1 nM and the concentration of Alamar blue was 10%.
The reaction volume used was 200 μl. Fluorescence was measured at wavelengths of 530 nm (excitation) and 590 nm (emission).

The subject of a further data set is β-amyloid. In words: Intracellular β-amyloid expression, immunocytometry with 6E10 antibody. In kind it is cell-based, mouse. As to conditions: 3xTg-AD neocortical cultures, 1 nM yessotoxin between days 3 and 7 of culture; **p<0.005 vs transgenic cultures, n=3.
From the text: as §1
(§2) The effect of yessotoxin on overexpression of β-amyloid and Tau hyperphosphorylation was determined by immunocytometric and Western blot techniques. Primary neuronal cultures were treated with 1 nM yessotoxin between days 3 and 7 of culture. The cells were then processed following the usual protocols for immunocytometry and Western blot. For immunocytometric and Western blot studies, protein expression was evaluated using 6E10 anti-β-amyloid primary antibodies at a dilution of 1:500, AT8 anti-Tau (Tau phosphorylated on Ser202, dilution 1:1000) and AT100 anti-Tau (Tau phosphorylated on Thr212 and Ser214, dilution 1:1000). […] Total protein concentration was determined by Bradford's method using bovine albumin as standard. […] The membranes were incubated with the primary antibodies, washed, and then incubated with a secondary antibody linked to HRP; the immunoreactivity was detected by chemiluminescence. […]

Data set [2] relates to Tau phosphorylated on Ser202. In words: Phosphorylated Tau (Ser202), Western blot with AT8 antibody. In kind it is cell-based, mouse. As to conditions: 3xTg-AD cortical cultures, 1 nM yessotoxin between days 3 and 7 of culture; *p<0.05, n=3.
From the text: as §1, §2

Data set [3] deals with Tau phosphorylated on Thr212 and Ser214. In words: Phosphorylated Tau (Thr212 and Ser214), Western blot with AT100 antibody. The data set is classed as cell-based, mouse. As to conditions: 3xTg-AD cortical cultures, 1 nM yessotoxin between days 3 and 7 of culture; n=3.
From the text: as §1, §2

The conditions of data set [4]: Paz et al., Marine Drugs 2008; cited from earlier work.

Consider yessotoxin, for which, in data set [1], the “effect on in vitro cell viability” value was “did not affect in vitro cell viability”. Moreover, the “overexpression of β-amyloid (6E10 immunoreactivity)” value in the data set with β-amyloid is “significant reduction of overexpression of β-amyloid”. Besides, the “Tau phosphorylation (AT8, Ser202)” value in data set [2] is “significant reduction of Tau phosphorylation”. In data set [3], the “reduction of Tau phosphorylation (AT100, Thr212 and Ser214)” value stood at 12%. Moreover, in data set [4], the oral toxicity result is “does not exhibit oral toxicity”.

Source of the values: US20130035302A1, “USE OF […] ANALOGUES AND DERIVATIVES THEREOF FOR TREATING AND/OR PREVENTING NEURODEGENERATIVE DISEASES LINKED TO TAU AND BETA AMYLOID” (UNIVERSIDADE DE SANTIAGO DE COMPOSTELA, priority 2010, published 2013).
